Values after ≈ are worked out from the molar mass of the structure shown. Read-outs that look alike come from different tables or passages of the source.
Key:
[1] = system: Staphylococcus aureus Oxford; assay: MIC by agar-dilution, Staphylococcus aureus Oxford; format: cell-based; settings: inoculum 10^4 CFU/spot, 37° C., 24 hours
Protocol: (§1) The following results were obtained on a standard in-vitro test system. The activity is described in terms of the minimum inhibitory concentration (MIC) determined by the agar-dilution technique with an inoculum size of 10^4 CFU/spot. Typically, compounds are active in the range 0.01 to 256 μg/ml.
(§2) Staphylococci were tested on agar, using an inoculum of 10^4 CFU/spot and an incubation temperature of 37° C. for 24 hours—standard test conditions for the expression of methicillin resistance.

Enterococcus faecalis = assay: MIC by agar-dilution, Enterococcus faecalis; format: cell-based; settings: agar with 5% defibrinated horse blood, 10^4 CFU/spot, 37° C., 5% carbon dioxide, 48 hours
Protocol: as §1, with “μg/ml. Streptococci and enterococci were tested on agar supplemented with 5% defibrinated horse blood, an inoculum of 10^4 CFU/spot and an incubation temperature of 37° C. in an atmosphere of 5% carbon dioxide for 48 hours—blood is required for the growth of some of the test organisms.” for “μg/ml.”

[2] = system: Streptococcus pyogenes C203; assay: MIC by agar-dilution, Streptococcus pyogenes C203; format: cell-based; settings: agar with 5% defibrinated horse blood, 10^4 CFU/spot, 37° C., 5% carbon dioxide, 48 hours
Protocol: as §1, with “μg/ml. Streptococci and enterococci were tested on agar supplemented with 5% defibrinated horse blood, an inoculum of 10^4 CFU/spot and an incubation temperature of 37° C. in an atmosphere of 5% carbon dioxide for 48 hours—blood is required for the growth of some of the test organisms.” for “μg/ml.”

[3] = system: Coagulase Negative Staphylococci MS (methicillin sensitive); assay: MIC by agar-dilution, Coagulase Negative Staphylococci MS; format: cell-based; settings: inoculum 10^4 CFU/spot, 37° C., 24 hours
Protocol: as §1, §2

[4] = system: Coagulase Negative Staphylococci MR (methicillin resistant); assay: MIC by agar-dilution, Coagulase Negative Staphylococci MR; format: cell-based; settings: inoculum 10^4 CFU/spot, 37° C., 24 hours
Protocol: as §1, §2

Bacillus subtilis = assay: MIC by agar-dilution, Bacillus subtilis; format: cell-based; settings: inoculum 10^4 CFU/spot
Protocol: as §1

[5] = system: Staphylococcus aureus Novb. Res (Novobiocin resistant); assay: MIC by agar-dilution, Staphylococcus aureus Novb. Res; format: cell-based; settings: inoculum 10^4 CFU/spot, 37° C., 24 hours
Protocol: as §1, §2

[6] = system: Staphylococcus aureus MRQR (methicillin resistant quinolone resistant); assay: MIC by agar-dilution, Staphylococcus aureus MRQR; format: cell-based; settings: inoculum 10^4 CFU/spot, 37° C., 24 hours
Protocol: as §1, §2

melting point	MIC ([1]; read-out: MIC) [µg/mL]	MIC (Enterococcus faecalis; read-out: MIC) [µg/mL]	MIC ([2]; read-out: MIC) [µg/mL]	MIC ([3]; read-out: MIC) [µg/mL]	MIC ([4]; read-out: MIC) [µg/mL]	MIC (Bacillus subtilis; read-out: MIC) [µg/mL]	MIC ([5]; read-out: MIC) [µg/mL]	MIC ([6]; read-out: MIC) [µg/mL]	SMILES	other results
200 to 202 °C (dec.)	–	–	–	–	–	–	–	–	O=C([C@@H](O)CO)N1CC=C(c2ccc(N3C[C@H](COc4ccon4)OC3=O)cc2)CC1 [Example 41, 5(R)-Isoxazol-3-yloxymethyl-3-(4-(1-(2(S),3-dihydroxypropanoyl)-1,2,5,6-tetrahydropyrid-4-yl)phenyl)oxazolidin-2-one]	–
97 to 98 °C	–	–	–	–	–	–	–	–	O=C1O[C@@H](COc2cnsn2)CN1c1ccc(N2C[C@@H]3C[C@H]2CN3Cc2ccccc2)c(F)c1 [Example 154, 5(R)-1 ,2,5-Thiadiazol-3-yloxymethyl-3-(4-((1 S)(4S)-2-benzyl-2,5-diazabicyclo{2.2.1}heptan-5-yl)-3-fluorophenyl)oxazolidin-2-one]	–
–	0.25 (≈ 0.559 µM)	1 (≈ 2.24 µM)	0.5 (≈ 1.12 µM)	0.13 (≈ 0.291 µM)	0.5 (≈ 1.12 µM)	0.25 (≈ 0.559 µM)	0.5 (≈ 1.12 µM)	0.5 (≈ 1.12 µM)	O=C([C@@H](O)CO)N1CC=C(c2ccc(N3C[C@H](COc4ccon4)OC3=O)cc2F)CC1 [Example 12, 5(R)-Isoxazol-3-yloxymethyl-3-(4-(1-(2(S),3-dihydroxypropanoyl)-1,2,5,6-tetrahydropyrid-4-yl)-3-fluorophenyl)oxazolidin-2-one]	–
–	0.25 (≈ 0.537 µM)	0.5 (≈ 1.07 µM)	0.25 (≈ 0.537 µM)	0.13 (≈ 0.279 µM)	0.5 (≈ 1.07 µM)	0.25 (≈ 0.537 µM)	0.25 (≈ 0.537 µM)	0.5 (≈ 1.07 µM)	O=C([C@@H](O)CO)N1CC=C(c2c(F)cc(N3C[C@H](COc4ccon4)OC3=O)cc2F)CC1 [Example 18, 5(R)-Isoxazol-3-yloxymethyl-3-(4-(1-(2(S),3-dihydroxypropanoyl)-1,2,5,6-tetrahydropyrid-4-yl)-3,5-difluorophenyl)oxazolidin-2-one]	–
46 to 48 °C	–	–	–	–	–	–	–	–	O=C1O[C@@H](COc2cnsn2)CN1c1ccc(C2=CCOCC2)c(F)c1 [Example 10, 5(R)-(1,2,5-Thiadiazol-3-yloxymethyl)-3-(3-fluoro-4-(3,6-dihydro-(2H)-pyran-4-yl)phenyl)oxazolidin-2-one]	–
146 to 148 °C	–	–	–	–	–	–	–	–	O=C1O[C@@H](COc2cnsn2)CN1c1ccc(C2=CCOCC2)c(F)c1 [Example 142, 5(R)-1,2,5-Thiadiazol-3-yloxymethyl-3-(4-[3,6-dihydro-(2H)-pyran-4-yl]-3-fluorophenyl)oxazolidin-2-one]	–
–	0.25	1	0.5	0.13	0.5	0.25	0.5	0.5	O=C(C(O)CO)N1CC=C(c2c(F)cc(N3C[C@H](COc4ccon4)OC3=O)cc2F)CC1 (mixture of isomers) [Example 4, 5(R)-Isoxazol-3-yloxymethyl-3-(4-(1-(2(R,S),3-dihydroxypropanoyl)-1,2,5,6-tetrahydropyrid-4-yl)-3,5-difluorophenyl)-oxazolidin-2-one]	–
138 to 144 °C	–	–	–	–	–	–	–	–	O=C([C@H](O)CO)N1CC=C(c2ccc(N3C[C@H](COc4ccon4)OC3=O)cc2)CC1 [Example 40, 5(R)-Isoxazol-3-yloxymethyl-3-(4-(1-(2(R),3-dihydroxypropanoyl)-1,2,5,6-tetrahydropyrid-4-yl)phenyl)oxazolidin-2-one]	–
–	–	–	–	–	–	–	–	–	O=C(CO)N1CC=C(c2ccc(N3C[C@H](COc4cnsn4)OC3=O)cc2F)CC1 [Example 151, 5(R)-1,2,5-Thiadiazol-3-yloxymethyl-3-(4-(1-hydroxyacetyl-1,2,5,6-tetrahydropyrid-4-yl)-3-fluorophenyl)oxazolidin-2-one]	MIC [1]: 0.13 µg/mL (≈ 0.299 µM); MIC (Enterococcus faecalis): 0.25 µg/mL (≈ 0.575 µM); MIC [2]: 0.25 µg/mL (≈ 0.575 µM); MIC [3]: 0.13 µg/mL (≈ 0.299 µM); MIC [4]: 0.25 µg/mL (≈ 0.575 µM); MIC (Bacillus subtilis): 0.13 µg/mL (≈ 0.299 µM); MIC [5]: 0.25 µg/mL (≈ 0.575 µM); MIC [6]: 0.25 µg/mL (≈ 0.575 µM)
180 °C	–	–	–	–	–	–	–	–	CS(=O)(=O)c1ccc(N2C[C@H](COc3ccon3)OC2=O)cc1 [Example 163, 3-(4-Methylsulfonylphenyl)-5(R)-(isoxazol-3-yloxymethyl)oxazolidin-2-one]	–
